Measured values: ChEMBL document CHEMBL1201862, “PubChem BioAssay data set” (2004)
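Test compounds were applied to cells in 96-well plates for 48 hours at 5 doses. Here, GI50 denotes the concentration required for 50% inhibition of growth.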 The source made the active and inactive calls. Cut-off read from the data, not from the text of the source: active = GI50 up to about 1.1 µM and inactive = higher.

What was measured:
Experiment in all cases: growth of human tumour cells (NCI), 48 h
HOP-62 = tested on: HOP-62
SN12C = tested on: SN12C
BT-549 = tested on: BT-549
SK-OV-3 = tested on: SK-OV-3
NCI-H226 = tested on: NCI-H226
SK-MEL-2 = tested on: SK-MEL-2
RXF 393 = tested on: RXF 393
HCT-116 = tested on: HCT-116
COLO 205 = tested on: COLO 205
HCT-15 = tested on: HCT-15
M14 = tested on: M14
SR = tested on: SR
DU-145 = tested on: DU-145
OVCAR-5 = tested on: OVCAR-5
NCI/ADR-RES = tested on: NCI/ADR-RES
SF-295 = tested on: SF-295
RPMI-8226 = tested on: RPMI-8226
PC-3 = tested on: PC-3
ACHN = tested on: ACHN
UO-31 = tested on: UO-31
NCI-H522 = tested on: NCI-H522
K562 = tested on: K562
SNB-75 = tested on: SNB-75
T47D = tested on: T47D
Hs-578T = tested on: Hs-578T
786-0 = tested on: 786-0
HT-29 = tested on: HT-29
SF-539 = tested on: SF-539
CAKI-1 = tested on: CAKI-1
SNB-19 = tested on: SNB-19
MDA-MB-435 = tested on: MDA-MB-435
HCC 2998 = tested on: HCC 2998
HOP-92 = tested on: HOP-92
MDA-MB-231 = tested on: MDA-MB-231
MCF7 = tested on: MCF7
CCRF-CEM = tested on: CCRF-CEM
EKVX = tested on: EKVX
A549 = tested on: A549
KM12 = tested on: KM12
MOLT-4 = tested on: MOLT-4
OVCAR-4 = tested on: OVCAR-4
IGROV-1 = tested on: IGROV-1
A498 = tested on: A498
SK-MEL-5 = tested on: SK-MEL-5
UACC-257 = tested on: UACC-257
NCI-H460 = tested on: NCI-H460
U-251 = tested on: U-251
SF-268 = tested on: SF-268
SK-MEL-28 = tested on: SK-MEL-28
TK-10 = tested on: TK-10
NCI-H23 = tested on: NCI-H23
OVCAR-8 = tested on: OVCAR-8
OVCAR-3 = tested on: OVCAR-3
SW-620 = tested on: SW-620
Malme-3M = tested on: Malme-3M
HL-60 = tested on: HL-60
MDA-N = tested on: MDA-N
LOX IMVI = tested on: LOX IMVI
UACC-62 = tested on: UACC-62

## Cc1cnc2c(c1C)C(=O)c1ccccc1C2=O
HOP-62
  GI50: 2.47 µM (inactive)
SN12C
  GI50: 28.6 µM (inactive)
BT-549
  GI50: > 100 µM (inactive)
SK-OV-3
  GI50: 50.5 µM (inactive)
NCI-H226
  GI50: 36.8 µM (inactive)
SK-MEL-2
  GI50: 63.5 µM (inactive)
RXF 393
  GI50: 58.1 µM (inactive)
HCT-116
  GI50: 36.1 µM (inactive)
COLO 205
  GI50: 28.8 µM (inactive)
HCT-15
  GI50: 21.6 µM
M14
  GI50: 69 µM (inactive)
SR
  GI50: 38 µM (inactive)
DU-145
  GI50: > 100 µM (inactive)
OVCAR-5
  GI50: > 100 µM (inactive)
NCI/ADR-RES
  GI50: 46.3 µM (inactive)
SF-295
  GI50: 50.2 µM (inactive)
RPMI-8226
  GI50: 24.6 µM (inactive)
PC-3
  GI50: 26 µM (inactive)
ACHN
  GI50: 36.4 µM (inactive)
UO-31
  GI50: 21.2 µM (inactive)
NCI-H522
  GI50: > 100 µM (inactive)
K562
  GI50: 39.4 µM (inactive)
SNB-75
  GI50: 32.9 µM (inactive)
T47D
  GI50: 70.5 µM (inactive)
Hs-578T
  GI50: 32.9 µM (inactive)
786-0
  GI50: 65.2 µM (inactive)
HT-29
  GI50: 37.2 µM (inactive)
SF-539
  GI50: 29.2 µM (inactive)
CAKI-1
  GI50: 30 µM (inactive)
SNB-19
  GI50: 41.9 µM (inactive)
MDA-MB-435
  GI50: 19.3 µM (inactive)
HCC 2998
  GI50: 29.7 µM (inactive)
HOP-92
  GI50: > 100 µM (inactive)
MDA-MB-231
  GI50: 26.5 µM (inactive)
MCF7
  GI50: 39.1 µM (inactive)
CCRF-CEM
  GI50: 69.8 µM (inactive)
EKVX
  GI50: 37.8 µM (inactive)
A549
  GI50: 40.1 µM (inactive)
KM12
  GI50: 44.6 µM (inactive)
MOLT-4
  GI50: 28.3 µM (inactive)
OVCAR-4
  GI50: 18.8 µM (inactive)
IGROV-1
  GI50: 32.6 µM (inactive)
A498
  GI50: > 100 µM (inactive)
SK-MEL-5
  GI50: 11.8 µM (inactive)
UACC-257
  GI50: 49.4 µM (inactive)
NCI-H460
  GI50: 18.8 µM (inactive)
U-251
  GI50: 61.5 µM (inactive)
SF-268
  GI50: 20.1 µM (inactive)
SK-MEL-28
  GI50: > 100 µM (inactive)
TK-10
  GI50: > 100 µM (inactive)
NCI-H23
  GI50: 44.7 µM (inactive)
OVCAR-8
  GI50: 43.2 µM (inactive)
OVCAR-3
  GI50: 3.48 µM (inactive)
SW-620
  GI50: 27.5 µM (inactive)

## COc1ccc(C)cc1Nc1nnc(-c2ccc(N)cc2)s1
HOP-62
  GI50: 51.8 µM (inactive)
SN12C
  GI50: > 100 µM (inactive)
BT-549
  GI50: > 100 µM (inactive)
SK-OV-3
  GI50: > 100 µM (inactive)
NCI-H226
  GI50: 44.9 µM (inactive)
SK-MEL-2
  GI50: 63.1 µM (inactive)
RXF 393
  GI50: 62.4 µM (inactive)
HCT-116
  GI50: 49.4 µM (inactive)
COLO 205
  GI50: 80.5 µM (inactive)
HCT-15
  GI50: 69.2 µM
Malme-3M
  GI50: > 100 µM (inactive)
M14
  GI50: > 100 µM (inactive)
SR
  GI50: 38.4 µM (inactive)
DU-145
  GI50: > 100 µM (inactive)
OVCAR-5
  GI50: 68.7 µM (inactive)
NCI/ADR-RES
  GI50: > 100 µM (inactive)
SF-295
  GI50: 43.4 µM (inactive)
RPMI-8226
  GI50: 31.5 µM (inactive)
HL-60
  GI50: 32.7 µM (inactive)
PC-3
  GI50: 96.4 µM (inactive)
ACHN
  GI50: > 100 µM (inactive)
UO-31
  GI50: 42 µM (inactive)
NCI-H522
  GI50: 60.3 µM (inactive)
K562
  GI50: 35.8 µM (inactive)
SNB-75
  GI50: > 100 µM (inactive)
T47D
  GI50: 36.1 µM (inactive)
Hs-578T
  GI50: > 100 µM (inactive)
786-0
  GI50: 70.1 µM (inactive)
HT-29
  GI50: 48.3 µM (inactive)
SF-539
  GI50: > 100 µM (inactive)
CAKI-1
  GI50: 73.3 µM (inactive)
MDA-N
  GI50: 30.4 µM (inactive)
SNB-19
  GI50: > 100 µM (inactive)
MDA-MB-435
  GI50: 33.3 µM (inactive)
HCC 2998
  GI50: 44.7 µM (inactive)
HOP-92
  GI50: > 100 µM (inactive)
MCF7
  GI50: 46.3 µM (inactive)
CCRF-CEM
  GI50: 41 µM (inactive)
EKVX
  GI50: 2.65 µM (inactive)
A549
  GI50: 7.53 µM (inactive)
KM12
  GI50: 46.2 µM (inactive)
MOLT-4
  GI50: 35.3 µM (inactive)
OVCAR-4
  GI50: > 100 µM (inactive)
IGROV-1
  GI50: > 100 µM (inactive)
A498
  GI50: > 100 µM (inactive)
SK-MEL-5
  GI50: 24.5 µM (inactive)
UACC-257
  GI50: 81.1 µM (inactive)
NCI-H460
  GI50: 61.8 µM (inactive)
SF-268
  GI50: > 100 µM (inactive)
SK-MEL-28
  GI50: > 100 µM (inactive)
LOX IMVI
  GI50: 39.4 µM (inactive)
NCI-H23
  GI50: 88.1 µM (inactive)
OVCAR-8
  GI50: 87.3 µM (inactive)
OVCAR-3
  GI50: 73.6 µM (inactive)
SW-620
  GI50: 88.1 µM (inactive)
UACC-62
  GI50: > 100 µM (inactive)
